Some test systems named below: OVCAR-4 ovarian; NCI-H23 lung; HL-60(TB) leukemia; PC-3 prostate; CAKI-1 renal; NCI-H226 lung; IGROV1 ovarian; OVCAR-8 ovarian; NCI/ADR-RES ovarian; HOP-92 NSCLC.
Common to all, as to test: NCI anticancer screen, dose series, 48 h

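All cell lines were grown in 96-well plates and treated with compound for 48 hours. At the GI50, growth is halved. TGI: concentration producing complete growth inhibition.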

Turning to `CCCCCn1sc(=O)n(Cc2ccc(CNC(=O)C(C)c3ccc(CC(C)C)cc3)cc2)c1=O` (stereo not given), the GI50 in the test with OVCAR-4 ovarian was 0.999 µM; with NCI-H23 lung it was 1.45 µM; with HL-60(TB) leukemia, 1.68 µM; in the test on PC-3 prostate it was 0.876 µM; with CAKI-1 renal it was 0.562 µM; in the test on NCI-H226 lung it was 1.3 µM. The GI50 is 0.645 µM in the test with IGROV1 ovarian, 1.09 µM in the test on OVCAR-8 ovarian, 1.65 µM in the test on NCI/ADR-RES ovarian and 0.577 µM in the test with HOP-92 NSCLC. Further, the TGI in the test on OVCAR-4 ovarian is 2.42 µM; with NCI-H23 lung it was 2.96 µM; in the test on HL-60(TB) leukemia, above 20.5 µM; with PC-3 prostate, 2.47 µM; in the test on CAKI-1 renal it was 1.92 µM; with NCI-H226 lung, 2.67 µM. In addition, the TGI stood at 2 µM in the test with IGROV1 ovarian, 2.73 µM in the test with OVCAR-8 ovarian, 5.54 µM with NCI/ADR-RES ovarian and 2.09 µM with HOP-92 NSCLC.

Consider `Cc1cnc(C(=O)Nc2nc3ccc(S(=O)(=O)Nc4ccc(C(C)(C)C)cc4)cc3[nH]2)cn1`, for which the GI50 in the test with OVCAR-4 ovarian is 1.46 µM; with NCI-H23 lung, 0.606 µM; in the test on HL-60(TB) leukemia it was 0.304 µM; in the test with PC-3 prostate, 0.402 µM; in the test with CAKI-1 renal, 0.544 µM; in the test with NCI-H226 lung it was 0.723 µM. Further, the GI50 with IGROV1 ovarian is 0.776 µM; in the test on OVCAR-8 ovarian, 1.26 µM; in the test on NCI/ADR-RES ovarian, 0.37 µM; in the test with HOP-92 NSCLC it was 0.553 µM. Moreover, the TGI with OVCAR-4 ovarian was found to be 17.3 µM; in the test with NCI-H23 lung, 12.7 µM; in the test with HL-60(TB) leukemia it was 1.07 µM; in the test with PC-3 prostate, 8.31 µM; with CAKI-1 renal, 16.4 µM; in the test on NCI-H226 lung it was 7.35 µM. Besides, the TGI came out at 12.3 µM in the test on IGROV1 ovarian, 17.2 µM in the test with OVCAR-8 ovarian, 3.57 µM in the test on NCI/ADR-RES ovarian and 7.24 µM with HOP-92 NSCLC.

Turning to `CCCCCCCCCC(=O)Oc1ccc(/C(=C(/C)c2ccccc2)c2ccc(OCCN3CCCC3)cc2)cc1`, the GI50 in the test on OVCAR-4 ovarian is 7.39 µM; in the test with NCI-H23 lung it was 7.74 µM; with HL-60(TB) leukemia, 9.24 µM; with PC-3 prostate, 8.28 µM; in the test with CAKI-1 renal, 6.77 µM; in the test on NCI-H226 lung, 9.42 µM. Further, the GI50 is 8.67 µM with IGROV1 ovarian, 9.78 µM in the test with OVCAR-8 ovarian, 8.03 µM in the test on NCI/ADR-RES ovarian and 7.01 µM with HOP-92 NSCLC. Also, the TGI in the test on OVCAR-4 ovarian was 14.9 µM; with NCI-H23 lung it was 16.1 µM; with HL-60(TB) leukemia, 18.7 µM; with PC-3 prostate it was 15.7 µM; in the test on CAKI-1 renal, 13.9 µM; in the test on NCI-H226 lung, 18.5 µM. For the same molecule, the TGI was determined as 19.5 µM in the test on IGROV1 ovarian, 20.8 µM with OVCAR-8 ovarian, 16.9 µM with NCI/ADR-RES ovarian and 15.4 µM in the test with HOP-92 NSCLC.

Regarding `CNC(=O)c1sc(-n2cnc3cc(OC)c(OC)cc32)cc1OCc1ccccc1C(F)(F)F`, the GI50 with OVCAR-4 ovarian is above 25 µM; in the test on NCI-H23 lung it was above 25 µM; in the test on HL-60(TB) leukemia it was above 15.8 µM; in the test on PC-3 prostate it was above 25 µM; in the test with CAKI-1 renal, above 25 µM; in the test on NCI-H226 lung it was 22.9 µM. The GI50 in the test on IGROV1 ovarian is above 25 µM; in the test with OVCAR-8 ovarian it was above 19.2 µM; in the test with NCI/ADR-RES ovarian it was 14.9 µM; in the test with HOP-92 NSCLC, 2.2 µM. For the same molecule, the TGI in the test with OVCAR-4 ovarian, in the test with NCI-H23 lung, in the test with HL-60(TB) leukemia, in the test on PC-3 prostate, in the test on CAKI-1 renal and in the test on NCI-H226 lung was above 25 µM throughout. In addition, the TGI in the test on IGROV1 ovarian, with OVCAR-8 ovarian, in the test on NCI/ADR-RES ovarian and in the test on HOP-92 NSCLC was above 25 µM in each case.

Take `COc1ccc2c(c1O)[C@@]13CCCC=C1[C@@H](C2)N(C)CC3`: the TGI in the test with OVCAR-4 ovarian, with NCI-H23 lung, with HL-60(TB) leukemia, with PC-3 prostate, with CAKI-1 renal and with NCI-H226 lung was above 100 µM in each case. Besides, the TGI in the test with IGROV1 ovarian, in the test on OVCAR-8 ovarian, in the test on NCI/ADR-RES ovarian and in the test with HOP-92 NSCLC was above 100 µM in each case.

In the case of `O=C1c2ccc3c4c(ccc(c24)C(=O)N1CCCCO)C(=O)N(CCCCO)C3=O`, the GI50 with OVCAR-4 ovarian is 0.428 µM; in the test with NCI-H23 lung, 1.6 µM; with HL-60(TB) leukemia it was 2.07 µM; in the test on PC-3 prostate, 3.1 µM; with CAKI-1 renal it was 2.27 µM; in the test on NCI-H226 lung, 3.45 µM. The GI50 in the test with IGROV1 ovarian is 2.12 µM; in the test with OVCAR-8 ovarian, 1.33 µM; with NCI/ADR-RES ovarian, 2.33 µM; with HOP-92 NSCLC, 3.51 µM. Further, the TGI with OVCAR-4 ovarian is 1.72 µM; with NCI-H23 lung, 5.17 µM; in the test with HL-60(TB) leukemia it was 7.43 µM; with PC-3 prostate, 30.1 µM; in the test on CAKI-1 renal, 13.6 µM; in the test on NCI-H226 lung, 15.5 µM. Besides, the TGI worked out at 5.87 µM in the test with IGROV1 ovarian, 8.45 µM in the test with OVCAR-8 ovarian, 11 µM in the test on NCI/ADR-RES ovarian and 7.98 µM with HOP-92 NSCLC.

Regarding `CC1=C(C(=S)Nc2ccc(Cl)c(C(=O)OC(C)C)c2)SCCO1`, the TGI in the test with OVCAR-4 ovarian came out at 43.5 µM; in the test with NCI-H23 lung, 62.2 µM; in the test with HL-60(TB) leukemia it was 37.2 µM; in the test with PC-3 prostate, 46.4 µM; with CAKI-1 renal, 48.5 µM; with NCI-H226 lung, 44.6 µM. The TGI with IGROV1 ovarian worked out at 33.1 µM; in the test on OVCAR-8 ovarian, 46.5 µM; in the test with NCI/ADR-RES ovarian, 43.2 µM; with HOP-92 NSCLC, 38.5 µM.
